Data reported in patent publication US12076307B2, “Compositions for prevention or treatment of acute radiation syndrome and other radiation exposure” (priority 2017, dated 2024).
“And” between values parts separate entries of the source, which are not always exact repeats. Equal entries are not always repeated. Marks after values point to notes of the source that are not given here.

Key:
[1] = system: S. typhi-murium (TA98, TA100, TA1535, TA1537), E. coli (WP2uvrA(pKM101)); type: cell-based; conditions: in vitro; 48 hr; 312.5-5000 μg/plate
From the text: (§1) Various toxicology studies have been performed. All studies were GLP-compliant unless otherwise noted.

[2] = In vitro plasma stability, human plasma; type: in vitro ADME; conditions: Humans; 1 μM; 37° C.; n=3
Protocol: To assess the stability of EC-18 in plasma, the test material, or the standard reference material (test concentration 1 μM) was mixed with rat and human plasma and allowed to react for 1 hr at 37° C. Then, the residual EC-18 concentration was measured by LC-MS/MS. As standard reference materials, albendazole (a drug with high plasma stability) and vinpocetine (a drug with low plasma stability) were tested in parallel. When allowed to react with rat and human plasma for 1 hr, the residual EC-18 concentration in both rat and human plasma was >99% of the initial dose.

[3] = Plasma protein binding by rapid equilibrium dialysis, rat; conditions: Rats, 4 hrs RED, n=3
Protocol: The plasma protein binding ability of EC-18 was tested by rapid equilibrium dialysis (RED). The chamber separated by a dialysis tubing membrane (cut-off: 8 kDa) was filled on one side with rat or human plasma mixed with phosphate buffer and on the other side with rat or human plasma mixed with the test or standard reference material (test concentration: 1 μM).

[4] = Embryo-fetal developmental toxicity study, SD rat; type: in vivo; conditions: SD, rat, in vivo; definitive study; Oral 11 days
From the text: as §1

SD rat = test: Embryo-fetal developmental toxicity study, SD rat; type: in vivo; conditions: for mortality: 0, 500, 1000, 2000 mg/kg
From the text: as §1

[5] = Whole blood and lymphatic radioactivity in rats after single oral [14C]EC-18 100 mg/kg; type: in vivo, rat
Balb/c mice, 6.11 Gy TBI = test: Dose optimization / pharmacodynamics study in LD70/30 ARS model (40 mice per group)
ICR mice = test: CNS function in mice (Irwin test); type: in vivo, mouse; conditions: single oral doses up to 2000 mg/kg; 4 hrs
[6] = 6.11 Gy, EC-18 50 mg/kg daily from day 1, 30 days
[7] = 6.11 Gy, EC-18 100 mg/kg daily from day 1, 30 days
[8] = 6.11 Gy, EC-18 250 mg/kg daily from day 1, 30 days
[9] = 6.11 Gy, EC-18 500 mg/kg daily from day 1, 30 days

## CCCCC/C=C\C/C=C\CCCCCCCC(=O)OC(COC(C)=O)COC(=O)CCCCCCCCCCCCCCC (centres unmarked) [EC-18, 1-palmitoyl-2-linoleoyl-3-acetylglycerol]
[1]
  induction of reverse mutation: No potential of EC-18
[2]
  Residual Concentration Relative to the Initial Dose After Reaction for 1 hr in Plasma: >99%
[3]; 1 μM
  Plasma Protein Binding Rate: 98.8 ± 0.5%
[3]; rat, plasma, Plasma Protein Binding Rate
  fraction unbound at 4 hrs, 1 μM: < 0.01
[4]
  NOAEL at 11 days: 2000 mg/kg/day
SD rat; DRF study, Oral 11 days
  significant differences in implantation rate, male-to-female ratio of fetuses, fetal mortality rate vs control: There were no
SD rat; DRF study, Oral 11 days (day-7 to day-17 of pregnancy)
  mortality: No dead animals
SD rat; definitive study, Oral 11 days
  findings: No specific findings
  mortality: No dead animals
[5]; lymphatic fluid
  Cmax of radioactivity at 24 hrs (so in the source): 48%
[5]; whole blood
  Cmax of radioactivity at 24 hrs (so in the source): 34%
Balb/c mice, 6.11 Gy TBI; 25 mg/kg (so in the source)
  improvement in survival vs control group: 2 fold
Balb/c mice, 6.11 Gy TBI; 250 mg/kg daily, 24-hr delayed
  improvement in survival vs control group: 4 fold
Balb/c mice, 6.11 Gy TBI; 250 mg/kg, 30 days of observation
  γ-radiation-induced reduction of RBC and hemoglobin: significantly prevented
Balb/c mice, 6.11 Gy TBI; 250 mg/kg, from 15 days to the last day of observation
  mean PLT count vs control cohort: higher
Balb/c mice, 6.11 Gy TBI; 500 mg/kg daily, 24-hr delayed
  improvement in survival vs control group: ~4 fold
Balb/c mice, 6.11 Gy TBI; 6.11 Gy, EC-18 50 mg/kg
  Survival time of decedents, Median: 25.5 days
Balb/c mice, 6.11 Gy TBI; [6]
  No. of mice that survived/total: 24/40
  Survivability / Survival: 60%
Balb/c mice, 6.11 Gy TBI; 6.11 Gy, EC-18 50 mg/kg, 50 mg/kg
  Survival time of decedents, Mean ± SEM: 24.3 days and 24.3 ± 1.2 days
Balb/c mice, 6.11 Gy TBI; 6.11 Gy, EC-18 100 mg/kg
  Survival time of decedents, Mean ± SEM: 22.8 ± 1.7 days
  Survival time of decedents, Median: 26.0 days
Balb/c mice, 6.11 Gy TBI; [7]
  No. of mice that survived/total: 27/40
  Survival: 67.5%
Balb/c mice, 6.11 Gy TBI; 6.11 Gy, EC-18 250 mg/kg
  Survival time of decedents, Median: 27.5 days
Balb/c mice, 6.11 Gy TBI; [8]
  No. of mice that survived/total: 34/40
  Survivability / Survival: 85%
Balb/c mice, 6.11 Gy TBI; 6.11 Gy, EC-18 250 mg/kg, 250 mg/kg
  Survival time of decedents, Mean ± SEM: 27.8 days and 27.8 ± 0.4 days
Balb/c mice, 6.11 Gy TBI; 6.11 Gy, EC-18 500 mg/kg
  Survival time of decedents, Median: 19.5 days
Balb/c mice, 6.11 Gy TBI; [9]
  No. of mice that survived/total: 34/40
  Survivability / Survival: 85%
Balb/c mice, 6.11 Gy TBI; 6.11 Gy, EC-18 500 mg/kg, 500 mg/kg
  Survival time of decedents, Mean ± SEM: 20.3 days and 20.3 ± 1.5 days
Balb/c mice, 6.11 Gy TBI; 50 and 250 mg/kg, dose-dependent
  radiation-induced depletion of ANC (and WBC): significantly attenuated
Balb/c mice, 6.11 Gy TBI; EC-18 50 mg/kg
  Mean of the First Day Of Anemia (HGB <12 g/dL) (±SE): 10.4 ± 0.7 (5-15)
  Mean of the First Day of Neutropenia (ANC <500 cells/μL) (±SE): 3.0 ± 0.0 (3-3)
  Mean of the First Day of Thrombocytopenia (PLT <100 × 10^3 cells/μL) (±SE): 10.0 ± 0.0 (10-10)
Balb/c mice, 6.11 Gy TBI; EC-18 50 mg/kg, 50 mg/kg
  Mean of the First Day of SN (ANC <100 cells/μL) (±SE): 5.7 ± 0.6 (3-10) days
Balb/c mice, 6.11 Gy TBI; EC-18 50 mg/kg, n=17
  Mean Duration of Anemia in Days (±SE): 15.0 ± 0.8^b (7-19) Days
Balb/c mice, 6.11 Gy TBI; EC-18 50 mg/kg, n=19
  Mean Duration of Neutropenia in Days (±SE): 21.0 ± 0.7^b (17-24) Days
  Mean Duration of SN in Days (±SE): 11.4 ± 0.9^b (5-19) Days
  Mean Duration of Thrombocytopenia in Days (±SE): 12.8 ± 0.8^b (7-17) Days
Balb/c mice, 6.11 Gy TBI; EC-18 100 mg/kg
  Mean of the First Day Of Anemia (HGB <12 g/dL) (±SE): 11.0 ± 0.5 (5-15)
  Mean of the First Day of Neutropenia (ANC <500 cells/μL) (±SE): 3.0 ± 0.0 (3-3)
  Mean of the First Day of Thrombocytopenia (PLT <100 × 10^3 cells/μL) (±SE): 10.0 ± 0.0 (10-10)
Balb/c mice, 6.11 Gy TBI; EC-18 100 mg/kg, 100 mg/kg
  Mean of the First Day of SN (ANC <100 cells/μL) (±SE): 5.1 ± 0.5 (3-10) days
Balb/c mice, 6.11 Gy TBI; EC-18 100 mg/kg, n=17
  Mean Duration of Anemia in Days (±SE): 15.5 ± 0.5^c (12-20) Days
Balb/c mice, 6.11 Gy TBI; EC-18 100 mg/kg, n=18
  Mean Duration of Neutropenia in Days (±SE): 23.9 ± 0.5^c (19-27) Days
  Mean Duration of SN in Days (±SE): 13.4 ± 1.3^c (7-25) Days
  Mean Duration of Thrombocytopenia in Days (±SE): 14.7 ± 1.0^c (5-20) Days
Balb/c mice, 6.11 Gy TBI; EC-18 250 mg/kg
  Mean of the First Day Of Anemia (HGB <12 g/dL) (±SE): 12.1 ± 0.5 (10-15)
  Mean of the First Day of Neutropenia (ANC <500 cells/μL) (±SE): 3.2 ± 0.1 (3-5)
  Mean of the First Day of Thrombocytopenia (PLT <100 × 10^3 cells/μL) (±SE): 10.1 ± 0.1 (10-12)
Balb/c mice, 6.11 Gy TBI; EC-18 250 mg/kg, 250 mg/kg
  Mean of the First Day of SN (ANC <100 cells/μL) (±SE): 8.5 ± 1.0 (3-17) days
Balb/c mice, 6.11 Gy TBI; EC-18 250 mg/kg, n=19
  Mean Duration of Anemia in Days (±SE): 9.7 ± 0.7^d (5-17) Days
Balb/c mice, 6.11 Gy TBI; EC-18 250 mg/kg, n=20
  Mean Duration of Neutropenia in Days (±SE): 21.2 ± 0.7^d (17-27) Days
  Mean Duration of SN in Days (±SE): 7.2 ± 0.7^d (2-12) Days
  Mean Duration of Thrombocytopenia in Days (±SE): 6.7 ± 0.5^d (3-12) Days
Balb/c mice, 6.11 Gy TBI; EC-18 500 mg/kg
  Mean of the First Day Of Anemia (HGB <12 g/dL) (±SE): 12.2 ± 0.5 (7-15)
  Mean of the First Day of Neutropenia (ANC <500 cells/μL) (±SE): 3.4 ± 0.2 (3-5)
  Mean of the First Day of Thrombocytopenia (PLT <100 × 10^3 cells/μL) (±SE): 10.1 ± 0.1 (10-12)
Balb/c mice, 6.11 Gy TBI; EC-18 500 mg/kg, 500 mg/kg
  Mean of the First Day of SN (ANC <100 cells/μL) (±SE): 7.0 ± 0.9 (3-20) days
Balb/c mice, 6.11 Gy TBI; EC-18 500 mg/kg, n=19
  Mean Duration of Anemia in Days (±SE): 14.0 ± 0.8^e (7-20) Days
  Mean Duration of Neutropenia in Days (±SE): 21.9 ± 0.6^e (17-27) Days
  Mean Duration of SN in Days (±SE): 9.6 ± 0.6^e (2-14) Days
  Mean Duration of Thrombocytopenia in Days (±SE): 12.3 ± 0.7^e (7-20) Days
Balb/c mice, 6.11 Gy TBI; mouse, in vivo
  severity of the nadir: diminished
  timing of nadirs for neutrophils, PLTs, red blood cells, hemoglobin: unchanged
ICR mice
  CNS function (Irwin test): did not affect the CNS function
